Source: publication PMC10094921, “A Lipidated Single-B-Chain Derivative of Relaxin Exhibits Improved In Vitro Serum Stability without Altering Activity” (International Journal of Molecular Sciences, 2023)
Starred links: 1 amine or outer side, 2 acyl side, 3 side chain; linkers in the order of their positions; H or OH if unused. Non-standard residues stand in square brackets, D forms with d. Residues, ends and D or L forms follow the SMILES beside them. Groups on a side chain read outwards from the residue. *: point of attachment. PEG12 = NCCOCCOCCOCCOCCOCCOCCOCCOCCOCCOCCOCCOCCC(=O)O; γGlu = O=C(O)[C@H](CCC(=O)[*:2])N[*:1]; PEG6 = NCCOCCOCCOCCOCCOCCOCCC(=O)O; Palmitoyl = CCCCCCCCCCCCCCCC(=O)*

Columns and labels:
[1] = In vitro serum stability assay; type: in vitro ADME, human; conditions: 37 °C
Experimental: 3.7. In Vitro Serum Stability Assay
A total of 400 µL of human serum was taken, and 200 µg peptide dissolved in 100 µL of water was added to human serum at 37 °C. A total of 80 µL of samples was removed at various time points (0 min, 30 min, 60 min, 120 min, 240 min, and 480 min), and 160 µL of acetonitrile was added to precipitate plasma proteins. The solution was then centrifuged at 12,000 rpm for 15 min at 4 °C. A total of 200 µL of supernatant was taken out and mixed with 240 µL of milli-Q water, and each sample was analyzed by RP-HPLC (2 × 80 μL injection), by measuring the area under the peak at the appropriate retention time compared to the peak area of the peptide at time zero minute (100%). Data analysis (n = 3, duplicate) was performed using Prism Version 8.0.2, a non-linear-fit one-phase decay model.

[2] = tested on: BJ3 human dermal myofibroblasts; assay: Myofibroblast differentiation in vitro (α-SMA expression, Western blot); type: cell-based
Experimental: 3.8. Determination of the Effects of Lipidated (L)-B7-33 on Myofibroblast Differentiation In Vitro
To determine if the lipidation of B7-33 prolonged its ability to suppress myofibroblast differentiation in vitro, the effects of the native B7-33 peptide vs. lipidated (L)-B7-33 were compared in BJ3 cells, a human dermal fibroblast cell line. BJ3 fibroblasts were used between passages 15–18 and cultured as described before. […] BJ3 cells were plated in 12-well plates at a density of 1–1.25 × 10^5 cells per well and were then either left untreated or stimulated with transforming growth factor (TGF)-β1 (T; 2 ng/mL) alone (to promote myofibroblast differentiation) or with T + B7-33 (100 ng/mL) or T + L-B7-33 (100 ng/mL) for a 14-day period, in media that was left unchanged over this time period. The cells from duplicate wells per treatment group were isolated from plates at 3-, 5-, 7-, 10- and 14-days post-T ± peptide treatment and extracted for protein using the RIPA lysis buffer (ThermoFisher Scientific; Scoresby, Victoria, Australia). These experiments were performed six independent times.
Half the cell protein (in 10 μL of RIPA buffer) from each sample (that was fully reconstituted in 20 μL of RIPA buffer) was loaded and electrophoresed in separate mini-protean 4–15% precast gels, and analyzed by Western blotting using a primary monoclonal antibody to α-SMA (42 kDa; M0851; […]; Agilent Technologies, Santa Clara, CA, USA). The equivalent loading of protein between samples was confirmed using a rabbit monoclonal glyceraldehyde 3-phosphate dehydrogenase (GAPDH) housekeeping antibody (37 kDa; 2118; 1:1000 dilution; Cell Signaling Technology; Danvers, MA, USA). Each membrane was then subjected to appropriate anti-mouse (7076) or anti-rabbit (7074) horseradish peroxidase-conjugated secondary antibodies (both at a 1:2000 dilution; Cell Signaling Technologies), before proteins were detected using the Clarity Western ECL substrate detection kit and quantified by densitometry with a ChemiDoc MP Imaging System and Image Lab v.6.0 software (both from Bio-Rad Laboratories, Hercules, CA, USA).The density of α-SMA from each sample was corrected for GAPDH protein levels and then expressed relative to the ratio that was measured from the unstimulated control group, which was expressed as 1 in each case. Representative blots of α-SMA and GAPDH were also chosen for presentation in each case.

[3] = target: T1, 7BP protein (RXFP1 extracellular domain attached with a single TM domain) (Homo sapiens, UniProt Q9HBX9); assay: Eu-H2 relaxin competition binding in HEK-7BP cells, BSA free; conditions: HEK-293T cells stably expressing 7BP, BSA excluded from buffer, mean ± SEM, n in brackets, one-site fit, read-out: HEK-7BP Binding B.S.A. Free Eu-H2 pKi (n) (converted)
T1 construct: RXFP1 extracellular domain attached with a single TM domain instead of the native 7 TM domain; single transmembrane domain replacing the native 7 TM domain (heterologous); expressed in transfected cells; host or cells: HEK-293T cells stably expressing 7BP (HEK-7BP)
T1 sequence (Q9HBX9 1-409 limits assumed): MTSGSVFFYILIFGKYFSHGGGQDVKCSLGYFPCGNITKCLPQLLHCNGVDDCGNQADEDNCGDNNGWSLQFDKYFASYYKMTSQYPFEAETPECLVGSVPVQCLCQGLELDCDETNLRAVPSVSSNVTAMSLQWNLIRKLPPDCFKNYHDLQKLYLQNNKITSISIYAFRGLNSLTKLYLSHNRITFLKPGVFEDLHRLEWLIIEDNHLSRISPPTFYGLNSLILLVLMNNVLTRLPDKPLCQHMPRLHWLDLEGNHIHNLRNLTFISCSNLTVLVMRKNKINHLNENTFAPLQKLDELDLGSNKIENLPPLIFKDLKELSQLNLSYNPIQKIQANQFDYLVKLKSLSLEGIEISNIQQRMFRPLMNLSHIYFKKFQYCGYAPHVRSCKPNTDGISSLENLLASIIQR
Experimental: 3.6. HEK-7BP Binding Assays
HEK-293T cells stably expressing the 7BP protein (HEK-7BP; RXFP1 extracellular domain attached with a single TM domain instead of the native 7 TM domain [30]) were plated in 96-well plates. The medium was aspirated off, and the cells were washed with phosphate-buffered saline (PBS) before competition binding assays were performed with Eu-H2 Relaxin (RXFP1 ligand), as previously described, with the only difference being that BSA was excluded from the binding assay buffer. Competition binding curves for each peptide were performed in triplicate, and each experiment was performed independently at least three times. Fluorescent measurements were carried out on a BMG POLARstar plate reader (BMG Labtech, Melbourne, Australia). Pooled data are presented as mean ± SE of specific binding and are fitted using a one-site binding curve in GraphPad Prism version 8 (GraphPad Inc., San Diego, CA, USA). Statistical analyses were conducted using a one-way analysis of variance with uncorrected Fisher’s least significant difference (LSD) post-hoc analysis in GraphPad Prism version 8.

## CCCCCCCCCCCCCCCC(=O)N[C@@H](CCC(=O)NCCCC[C@H](NC(C)=O)C(=O)NCCOCCOCCOCCOCCOCCOCCOCCOCCOCCOCCOCCOCCC(=O)N[C@H](C(=O)N[C@H](C(=O)N[C@@H](CCCCN)C(=O)N[C@@H](CC(C)C)C(=O)N[C@@H](CO)C(=O)NCC(=O)N[C@@H](CCCNC(=N)N)C(=O)N[C@@H](CCC(=O)O)C(=O)N[C@@H](CC(C)C)C(=O)N[C@H](C(=O)N[C@@H](CCCNC(=N)N)C(=O)N[C@@H](C)C(=O)N[C@@H](CCC(N)=O)C(=O)N[C@H](C(=O)N[C@@H](C)C(=O)N[C@H](C(=O)N[C@@H](CO)C(=O)NCC(=O)N[C@@H](CCSC)C(=O)N[C@@H](CO)C(=O)N[C@H](C(=O)N[C@@H](Cc1c[nH]c2ccccc12)C(=O)N[C@@H](CO)C(=O)N[C@@H](CCCCN)C(=O)N[C@@H](CCCNC(=N)N)C(=O)N[C@@H](CO)C(=O)N[C@@H](CC(C)C)C(N)=O)[C@@H](C)O)[C@@H](C)CC)[C@@H](C)CC)C(C)C)[C@@H](C)CC)C(C)C)C(=O)O [Ac K(PalmGlu)-PEG12-B7-33] (Ac-K([γGlu-Palmitoyl])[PEG12]VIKLSGRELVRAQIAISGMSTWSKRSL-NH2)
[1]; human serum 400 µL + 200 µg peptide in 100 µL water, samples 0-480 min, acetonitrile precipitation, RP-HPLC peak area vs time zero, one-phase decay fit, n = 3, duplicate
  half-life at 400 µg/mL: 1 h
[1]; human serum, RP-HPLC, n = 3 independent experiments
  in vitro serum stability, in words: stable in serum over time
[2]; peptide 100 ng/mL + T 2 ng/mL, after 7–14 days of culture
  α-SMA expression levels versus T-alone-stimulated cells, in words: fully returned to those measured for T-alone-stimulated cells
[2]; peptide 100 ng/mL + T 2 ng/mL, after 5 days, media unchanged, 0.5% FCS
  α-SMA expression level relative to T-alone-stimulated cells: ~ 70%
[2]; peptide 100 ng/mL co-administered with T (2 ng/mL), after 72 h of culture, 0.5% FCS, n = 6 in duplicate
  suppression of TGF-α-induced increase in α-SMA expression: almost fully suppressed

## CCCCCCCCCCCCCCCC(=O)NCCCC[C@H](NC(=O)[C@@H](NC(=O)[C@@H](N)C(C)C)[C@@H](C)CC)C(=O)N[C@@H](CC(C)C)C(=O)N[C@@H](CO)C(=O)NCC(=O)N[C@@H](CCCNC(=N)N)C(=O)N[C@@H](CCC(=O)O)C(=O)N[C@@H](CC(C)C)C(=O)N[C@H](C(=O)N[C@@H](CCCNC(=N)N)C(=O)N[C@@H](C)C(=O)N[C@@H](CCC(N)=O)C(=O)N[C@H](C(=O)N[C@@H](C)C(=O)N[C@H](C(=O)N[C@@H](CO)C(=O)NCC(=O)N[C@@H](CCSC)C(=O)N[C@@H](CO)C(=O)N[C@H](C(=O)N[C@@H](Cc1c[nH]c2ccccc12)C(=O)N[C@@H](CO)C(=O)N[C@@H](CCCCN)C(=O)N[C@@H](CCCNC(=N)N)C(=O)N[C@@H](CO)C(=O)N[C@@H](CC(C)C)C(N)=O)[C@@H](C)O)[C@@H](C)CC)[C@@H](C)CC)C(C)C [B7-33_9K(Palm)] (H-VIK(Palmitoyl)LSGRELVRAQIAISGMSTWSKRSL-NH2; N-terminus assumed)
[3]
  Ki: > 10 µM

## CCCCCCCCCCCCCCCC(=O)NCCOCCOCCOCCOCCOCCOCCC(=O)N[C@H](C(=O)N[C@H](C(=O)N[C@@H](CCCCN)C(=O)N[C@@H](CC(C)C)C(=O)N[C@@H](CO)C(=O)NCC(=O)N[C@@H](CCCNC(=N)N)C(=O)N[C@@H](CCC(=O)O)C(=O)N[C@@H](CC(C)C)C(=O)N[C@H](C(=O)N[C@@H](CCCNC(=N)N)C(=O)N[C@@H](C)C(=O)N[C@@H](CCC(N)=O)C(=O)N[C@H](C(=O)N[C@@H](C)C(=O)N[C@H](C(=O)N[C@@H](CO)C(=O)NCC(=O)N[C@@H](CCSC)C(=O)N[C@@H](CO)C(=O)N[C@H](C(=O)N[C@@H](Cc1c[nH]c2ccccc12)C(=O)N[C@@H](CO)C(=O)N[C@@H](CCCCN)C(=O)N[C@@H](CCCNC(=N)N)C(=O)N[C@@H](CO)C(=O)N[C@@H](CC(C)C)C(N)=O)[C@@H](C)O)[C@@H](C)CC)[C@@H](C)CC)C(C)C)[C@@H](C)CC)C(C)C [Palmitic acid-PEG6-B7-33] ({Palmitoyl-PEG6}-VIKLSGRELVRAQIAISGMSTWSKRSL-NH2)
[3]
  Ki: > 10 µM

## CCCCCCCCCCCCCCCC(=O)NCCCC[C@H](NC(=O)[C@H](CCC(=O)O)NC(=O)[C@H](Cc1ccc(O)cc1)NC(=O)[C@@H](N)CCC(=O)O)C(=O)N[C@@H](CCC(=O)O)C(=O)N[C@@H](Cc1ccc(O)cc1)C(=O)N[C@@H](CCC(=O)O)C(=O)N[C@H](C(=O)N[C@H](C(=O)N[C@@H](CCCCN)C(=O)N[C@@H](CC(C)C)C(=O)N[C@@H](CO)C(=O)NCC(=O)N[C@@H](CCCNC(=N)N)C(=O)N[C@@H](CCC(=O)O)C(=O)N[C@@H](CC(C)C)C(=O)N[C@H](C(=O)N[C@@H](CCCNC(=N)N)C(=O)N[C@@H](C)C(=O)N[C@@H](CCC(N)=O)C(=O)N[C@H](C(=O)N[C@@H](C)C(=O)N[C@H](C(=O)N[C@@H](CO)C(=O)NCC(=O)N[C@@H](CCSC)C(=O)N[C@@H](CO)C(=O)N[C@H](C(=O)N[C@@H](Cc1c[nH]c2ccccc12)C(=O)N[C@@H](CO)C(=O)N[C@@H](CCCCN)C(=O)N[C@@H](CCCNC(=N)N)C(=O)N[C@@H](CO)C(=O)N[C@@H](CC(C)C)C(N)=O)[C@@H](C)O)[C@@H](C)CC)[C@@H](C)CC)C(C)C)[C@@H](C)CC)C(C)C [Tag-B7-33] (H-EYEK(Palmitoyl)EYEVIKLSGRELVRAQIAISGMSTWSKRSL-NH2)
[3]
  Ki: > 10 µM

## CCCCCCCCCCCCCCCC(=O)NCCCC[C@H](NC(=O)[C@H](CCC(=O)O)NC(=O)[C@H](Cc1ccc(O)cc1)NC(=O)[C@@H](N)CCC(=O)O)C(=O)N[C@@H](CCC(=O)O)C(=O)N[C@@H](Cc1ccc(O)cc1)C(=O)N[C@@H](CCC(=O)O)C(=O)NCCOCCOCCOCCOCCC(=O)N[C@H](C(=O)N[C@H](C(=O)N[C@@H](CCCCN)C(=O)N[C@@H](CC(C)C)C(=O)N[C@@H](CO)C(=O)NCC(=O)N[C@@H](CCCNC(=N)N)C(=O)N[C@@H](CCC(=O)O)C(=O)N[C@@H](CC(C)C)C(=O)N[C@H](C(=O)N[C@@H](CCCNC(=N)N)C(=O)N[C@@H](C)C(=O)N[C@@H](CCC(N)=O)C(=O)N[C@H](C(=O)N[C@@H](C)C(=O)N[C@H](C(=O)N[C@@H](CO)C(=O)NCC(=O)N[C@@H](CCSC)C(=O)N[C@@H](CO)C(=O)N[C@H](C(=O)N[C@@H](Cc1c[nH]c2ccccc12)C(=O)N[C@@H](CO)C(=O)N[C@@H](CCCCN)C(=O)N[C@@H](CCCNC(=N)N)C(=O)N[C@@H](CO)C(=O)N[C@@H](CC(C)C)C(N)=O)[C@@H](C)O)[C@@H](C)CC)[C@@H](C)CC)C(C)C)[C@@H](C)CC)C(C)C [Tag-PEG4-B7-33]
[3]
  Ki: > 10 µM
